According to patent US11414436B2, “Non-coordinating anion type activators containing cation having large alkyl groups” (ExxonMobil Chemical Patents Inc., priority 2018, dated 2022):
“And” between values parts separate entries of the source, which are not always exact repeats. Identical values can stand only once.

Tests used:
[1] = Solubility studies of the activators (saturated solution in isohexane or methylcyclohexane); format: physicochemical; settings: methylcyclohexane
[2] = as above; format: physicochemical
Experimental: Solubility Studies of the Activators
Procedure for Solid Activators.
A saturated solution of each of the solid ammonium borate activators was prepared by stirring an excess of the activator with either isohexane or methylcyclohexane solvent for several hours at 25° C. The mixture was then filtered and a known volume of the filtrate was evaporated to dryness in a tared vial. The vial was then weighed to determine the mass of activator that was dissolved in the aliquot. The concentration of the saturated solution is presented in millimoles of activator per liter of solution (mM).
Procedure for Activators that Form Emulsions.
A saturated solution of the activator was prepared by slowly adding the solvent to a pre-weighed amount of the activator. The final volume was determined as the minimum amount of solvent required to convert the emulsion into a homogeneous solution. The concentration of the saturated solution is presented in millimoles of activator per liter of solution (mM). Alternatively, an emulsion of the activator was prepared by adding the solvent to an excess amount of activator. The resulting emulsion was separated from the undissolved solids by decanting the emulsion into a tared vial. Solvent was then added dropwise until the emulsion became homogeneous. The mass of the final solution was measured and then the solvent was evaporated to dryness to obtain the mass of the activator. The concentration of the saturated solution is presented in millimoles of activator per liter of solution (mM).

[3] = Ethylene-octene copolymerization in parallel pressure reactor, non-metallocene catalyst CAT-2; settings: catalyst CAT-2 20 nmol; activator 1.1 equiv; 100° C.; 135 psi; 1-octene 100 uL; TNOAL 0.5 umol
Experimental: (§1) Solutions of the metal complexes and activators were prepared in a drybox using toluene or methylcyclohexane. Concentrations were typically 0.2 mmol/L. Tri-n-octylaluminum (TNOAL, neat, AkzoNobel) was typically used as a scavenger. Concentration of the TNOAL solution in toluene ranged from 0.5 to 2.0 mmol/L.
(§2) Polymerizations were carried out in a parallel pressure reactor, as generally described in U.S. Pat. Nos. 6,306,658; 6,455,316; 6,489,168; WO 00/09255; and Murphy, V. et al. (2003) “A Fully Integrated High-Throughput Screening Methodology for the Discovery of New Polyolefin Catalysts: Discovery of a New Class of High Temperature Single-Site Group (IV) Copolymerization Catalysts,” J. Am. Chem. Soc., v. 125, pp. 4306-4317, each of which is fully incorporated herein by reference. […] Although the specific quantities, temperatures, solvents, reactants, reactant ratios, pressures, and other variables are frequently changed from one polymerization run to the next, the following describes a typical polymerization performed in a parallel pressure reactor.
(§3) Ethylene-Octene Copolymerization (EO).
(§4) A pre-weighed glass vial insert and disposable stirring paddle were fitted to each reaction vessel of the reactor, which contains 48 individual reaction vessels. The reactor was then closed and purged with ethylene. Each vessel was charged with enough solvent (typically isohexane) to bring the total reaction volume, including the subsequent additions, to the desired volume, typically 5 mL. 1-octene, if required, was injected into the reaction vessel and the reactor was heated to the set temperature and pressurized to the predetermined pressure of ethylene, while stirring at 800 rpm. The aluminum compound (such as tri-n-octylaluminum) in toluene was then injected as scavenger followed by addition of the activator solution (typically 1.0-1.2 molar equivalents).
(§5) The catalyst (and activator solutions for Run A) were all prepared in toluene. The catalyst solution (typically 0.020-0.080 μmol of metal complex) was injected into the reaction vessel and the polymerization was allowed to proceed until a pre-determined amount of ethylene (quench value typically 20 psi) had been used up by the reaction. Alternatively, the reaction may be allowed to proceed for a set amount of time (maximum reaction time typically 30 minutes). Ethylene was added continuously (through the use of computer controlled solenoid valves) to the autoclaves during polymerization to maintain reactor gauge pressure (P setpt, +/−2 psig) and the reactor temperature (T) was monitored and typically maintained within +/−1° C. The reaction was quenched by pressurizing the vessel with compressed air. After the reactor was vented and cooled, the glass vial insert containing the polymer product and solvent was removed from the pressure cell and the inert atmosphere glove box, and the volatile components were removed using a Genevac HT-12 centrifuge and Genevac VC3000D vacuum evaporator operating at elevated temperature and reduced pressure. The vial was then weighed to determine the yield of the polymer product. The resultant polymer was analyzed by Rapid GPC (see below) to determine the molecular weight, by FT-IR (see below) to determine percent octene incorporation, and by DSC (see below) to determine melting point (Tm).
(§6) Equivalence is determined based on the mole equivalents relative to the moles of the transition metal in the catalyst complex.
(§7) Activators of the present disclosure can also be used for activating non-metallocene catalysts for polymerization of olefins. Table 4 illustrates copolymerization of ethylene and octene using activators of the present disclosure and non-metallocene catalysts (CAT-1, CAT-2, CAT-3, and CAT-4).

[4] = Ethylene-octene copolymerization in parallel pressure reactor, non-metallocene catalyst CAT-4; settings: catalyst CAT-4 20 nmol; activator 1.1 equiv; 100° C.; 135 psi; 1-octene 100 uL; TNOAL 0.5 umol
Experimental: as §1, §2, §3, §4, §5, §6, §7

[5] = Ethylene-octene copolymerization in parallel pressure reactor, non-metallocene catalyst CAT-3; settings: catalyst CAT-3 20 nmol; activator 1.1 equiv; 100° C.; 135 psi; 1-octene 100 uL; TNOAL 0.5 umol
Experimental: as §1, §2, §3, §4, §5, §6, §7

[6] = Ethylene-octene copolymerization in parallel pressure reactor, non-metallocene catalyst CAT-1; settings: catalyst CAT-1 20 nmol; activator 1.1 equiv; 100° C.; 135 psi; 1-octene 100 uL; TNOAL 0.5 umol
Experimental: as §1, §2, §3, §4, §5, §6, §7

[7] = Ethylene homopolymerization (PE) in parallel pressure reactor, MCN-1; settings: MCN-1 = 20 nmol, activator = 22 nmol, 80° C., 75 PSI
Experimental: Ethylene homopolymerization (PE).
A series of ethylene polymerizations were performed in the parallel pressure reactor sinilar to the procedure described above. In these studies rac-dimethylsilyl- bis(indenyl)hafnium dimethyl (MCN-1) was used along with ammonium borate activators .

[8] = Ethylene-octene copolymerization (EO) in parallel pressure reactor, MCN-1 (Table 6); settings: MCN-1 = 20 nmol, activator = 22 nmol, 1-octene 100 μL, 80° C., 75 PSI
Experimental: as §3, §4, §5
A series of ethylene-octene polymerizations were performed in the parallel pressure reactor according to a similar procedure as described above. In these studies rac-dimethylsilyl-bis(indenyl)hafnium dimethyl (MCN-1) was used along with ammonium borate activators.

[9] = RUN B: ethylene-octene polymerization in parallel pressure reactor, activator diluent toluene or methylcyclohexane; settings: ethylene-octene copolymerization
Experimental: RUN B: Polymerization in Parallel Pressure Reactor.
A series of ethylene-octene polymerizations were performed in the parallel pressure reactor according to the procedure described above. […] In a typical experiment an automated syringe was used to introduce into the reactor the following reagents, if utilized, in the following order: isohexane (0.35 mL), an isohexane solution of TNOAL scavenger (0.005 M, 60 μL), additional isohexane (0.35 mL), a toluene solution of the respective polymerization catalyst (150 μL, 0.4 mM, 20 nm [cat]/100 μL [toluene]), additional isohexane (0.35 mL), a toluene or methylcyclohexane solution of the respective activator (150 μL, 0.4 mM, (20 nm [act]/100 μL[ diluent])), then additional isohexane so that the total solvent volume for each run was 5 mL. Catalyst and activator were used in a 1:1 ratio. Each reaction was performed at a specified temperature range between 50 and 120° C., typically 95° C., while applying about 100 psig of ethylene (monomer) gas. Each reaction was allowed to run for about 1 hour (˜3600 seconds) or until approximately 20 psig of ethylene gas uptake was observed, at which point the reactions were quenched with air (˜300 psig). When sufficient polymer yield was attained (e.g., at least ˜10 mg), the polyethylene product was analyzed by Rapid GPC, described below.
In a typical experiment, the anilinium borate activators were combined with toluene or methylcyclohexane as diluent and introduced to the parallel, pressure reactor via syringe. By this mechanism of activator introduction, only well dissolved activators could be delivered to the reactor providing a means to discriminate between the polymerization performance of long chain soluble anilinium borates vs. conventional anilinium borates. Following addition of activator, the catalyst Cat 1 was introduced, via syringe as well-dissolved toluene solution and the polymerization was conducted per the methodology described above.

[10] = Propylene homopolymerization in parallel pressure reactor, MCN-1 with ammonium borate activators
Text: Polymerization in Parallel Pressure Reactor
Solvents, polymerization-grade toluene, and isohexane were supplied by ExxonMobil Chemical Company and purified by passing through a series of columns: two 500 cc Oxyclear cylinders in series from Labclear (Oakland, Calif.), followed by two 500 cc columns in series packed with dried 3 Å mole sieves (8-12 mesh; Aldrich Chemical Company), and two 500 cc columns in series packed with dried 5 Å mole sieves (8-12 mesh; Aldrich Chemical Company). 1-octene (C8) and 1-hexene (C6) (98%, Aldrich Chemical Company) were dried by stirring over NaK overnight followed by filtration through basic alumina (Aldrich Chemical Company, Brockman Basic 1).
as §1, §2
Catalyst systems dissolved in solution were used in the polymerization examples below, unless specified otherwise.
RUN A: Propylene Homopolymerization (PP).
The reactor was prepared as described above and purged with propylene. For the examples in Table 2, the catalyst and activator solutions were prepared in toluene. […] Isohexane was then injected into each vessel at room temperature followed by a predetermined amount of propylene gas. The reactor was heated to the set temperature while stirring at 800 rpm, and the scavenger, activator and catalyst solutions were injected sequentially to each vessel. The polymerization was allowed to proceed as described previously.
A series of propylene polymerizations were performed in parallel pressure reactors (PPRs) developed by Symyx Technologies, Inc. In these polymerizations, the metallocene rac-dimethylsilyl-bis(indenyl)hafnium dimethyl (MCN-1) was used along with several different ammonium borate activators. Polymerizations were performed at 85° C. and 100° C.
Propylene homopolymerization (PP).
A series of propylene polymerizations were performed in the parallel pressure reactor similar to the procedure described above. In these studies rac-dimethylsilyl-bis(indenyl)hafnium dimethyl (MCN-1) was used along with ammonium borate activators.

Compound: CCCCCCCCCCCCCCCCCC[NH+](CCCCCCCCCCCCCCCCCC)c1ccc(C)cc1.Fc1c(F)c(F)c([B-](c2c(F)c(F)c(F)c(F)c2F)(c2c(F)c(F)c(F)c(F)c2F)c2c(F)c(F)c(F)c(F)c2F)c(F)c1F [DOdTH-BF20, 4-methyl-N,N-dioctadecylbenzenaminium-BF20]
- Solubility limit in MeCy (wt % at 25° C.) [1]: 19 wt %
- Solubility limit in i-hexane (mM at 25° C.) ([2]; isohexane): 19 mM
- Solubility limit in i-hexane (wt % at 25° C.) ([2]; isohexane): 3.7 wt %
- Solubility limit in MeCy (mM at 25° C.) ([2]; methylcyclohexane): 110 mM
- activity [3]: 1267 kg/mmol/h and 1154 kg/mmol/h
- activity [4]: 46 kg/mmol/h and 48 kg/mmol/h
- activity [5]: 647 kg/mmol/h and 732 kg/mmol/h
- activity [6]: 3716 kg/mmol/h and 3736 kg/mmol/h

Compound: CCCCCCCCCCCCCCCCCC[NH+](C)c1ccc(CCCCCCCCCCC)cc1.Fc1c(F)c(F)c([B-](c2c(F)c(F)c(F)c(F)c2F)(c2c(F)c(F)c(F)c(F)c2F)c2c(F)c(F)c(F)c(F)c2F)c(F)c1F [UOMAH-BF20]
- activity [7]: 332.5 kg/mmol/h and 317.6 kg/mmol/h and 310.3 kg/mmol/h and 400.0 kg/mmol/h
- activity [8]: 502.3 kg/mmol/h and 455.9 kg/mmol/h and 521.4 kg/mmol/h and 421.0 kg/mmol/h

Compound: CCCCCCCCCCCCCCCCCC[NH+](C)c1ccc(CCCCCCCCCCC)cc1.Fc1c(F)c(F)c2c(F)c([B-](c3c(F)c(F)c4c(F)c(F)c(F)c(F)c4c3F)(c3c(F)c(F)c4c(F)c(F)c(F)c(F)c4c3F)c3c(F)c(F)c4c(F)c(F)c(F)c(F)c4c3F)c(F)c(F)c2c1F [UOMAH-BF28, 4-Undecyl-N-methyl-N-octadecylanilinium-BF28]
- activity [7]: 250.9 kg/mmol/h and 186.5 kg/mmol/h
- activity [8]: 366.1 kg/mmol/h and 358.9 kg/mmol/h

Compound: N,N-Dimethylanilinium tetrakis(pentafluorophenyl)borate [DMAH-BF20, reference compound]
- quantity of polymer obtained with methylcyclohexane as diluent ([9]; Cat 1, activator in methylcyclohexane): insufficient for analysis
- activity ([9]; Cat 1 (MCN-1), activator diluent Toluene, listed as C1): 764.2 kg/mmol/h and 675.0 kg/mmol/h and 659.1 kg/mmol/h and 680.5 kg/mmol/h
- activity [3]: 1140 kg/mmol/h and 916 kg/mmol/h
- activity [7]: 288.7 kg/mmol/h and 407.1 kg/mmol/h
- activity [4]: 76 kg/mmol/h and 45 kg/mmol/h
- activity [5]: 819 kg/mmol/h and 698 kg/mmol/h
- activity [8]: 644.4 kg/mmol/h and 509.4 kg/mmol/h
- activity [6]: 2977 kg/mmol/h and 2469 kg/mmol/h

Compound: N-methyl-4-nonadecyl-N-octadecylanilinium tetrakis(pentafluorophenyl)borate [NOMAH-BF20]
- activity [7]: 215.4 kg/mmol/h and 237.5 kg/mmol/h and 399.2 kg/mmol/h and 340.1 kg/mmol/h
- activity [8]: 430.9 kg/mmol/h and 414.1 kg/mmol/h and 478.7 kg/mmol/h and 409.6 kg/mmol/h

Compound: N-methyl-4-nonadecyl-N-octadecylanilinium tetrakis(perfluoronaphthalen-2-yl)borate [NOMAH-BF28]
- activity [7]: 213.1 kg/mmol/h and 202.3 kg/mmol/h and 173.6 kg/mmol/h and 272.1 kg/mmol/h
- activity [8]: 302.1 kg/mmol/h and 321.1 kg/mmol/h and 300.0 kg/mmol/h and 345.5 kg/mmol/h
- average catalyst activity, comparison of the four activators (FIG. 6) ([10]; MCN-1, polypropylene at 100° C., Table 7 runs): highest average activities
- activity ([10]; propylene 150 psi, 100° C., MCN-1 = 30 nmol, activator = 33 nmol, isohexane, TNOAL 500 nmol): 141 kg/mmol/h and 208 kg/mmol/h and 193 kg/mmol/h and 210 kg/mmol/h and 181 kg/mmol/h and 178 kg/mmol/h and 223 kg/mmol/h and 207 kg/mmol/h
